# Test results published in ChEMBL document CHEMBL3421596, “A facile synthesis and microtubule-destabilizing properties of 4-(1H-benzo[d]imidazol-2-yl)-furazan-3-amines” (Eur J Med Chem, 2015).
# Calls of active or inactive are those of the source. No cut-off for these calls is given here.
# How the values were obtained:
# [1] = Cytotoxicity against human OVCAR3 cells; type: functional
# Paracentrotus lividus [2] = assay: Antiproliferative activity in sea urchin embryo assessed as destabilization of microtubule by tuberculate eggs after 15 mins to 20 hrs; type: functional, organism-based
# SF-539 = assay: Cytotoxicity against human SF539 cells; type: functional
# RXF 393 = assay: Cytotoxicity against human RXF393 cells; type: functional
# [3] = Cytotoxicity against human NCI60 cells; type: functional
# Paracentrotus lividus [4] = assay: Antiproliferative activity in sea urchin embryo assessed as antimitotic activity by measuring cleavage arrest exposed for 8 to 20 mins after fertilization and 45 to 55 mins before first mitotic cycle completion measured 2.5 to […] after fertilization; type: functional
# [5] = Cytotoxicity against human OVCAR8 cells; type: functional
# MDA-MB-435 = assay: Cytotoxicity against human MDA-MB-435 cells; type: functional
# Paracentrotus lividus [6] = assay: Antiproliferative activity in sea urchin embryo assessed as antimitotic activity by measuring cleavage alteration exposed for 8 to 20 mins after fertilization and 45 to 55 mins before first mitotic cycle completion measured 2.5 to […] after fertilization; type: functional
# [7] = Cytotoxicity against human NCI-ADR-RES cells; type: functional
# Paracentrotus lividus [8] = assay: Antiproliferative activity in sea urchin embryo assessed as destabilization of microtubule by measuring embryo spinning after 15 mins to 20 hrs; type: functional
# Tubulin = Tubulin (Bos taurus, UniProt Q6B856+Q862L2+Q862F3); assay: Inhibition of bovine tubulin polymerization by turbidity assay; type: protein assay
# SK-MEL-5 = assay: Cytotoxicity against human SK-MEL-5 cells; type: functional
# SW-620 = assay: Cytotoxicity against human SW620 cells; type: functional
# HT-29 = assay: Cytotoxicity against human HT-29 cells; type: functional
# MDA-MB-468 = assay: Cytotoxicity against human MDA-MB-468 cells; type: functional
# TK-10 = assay: Cytotoxicity against human TK10 cells; type: functional
# HOP-62 = assay: Cytotoxicity against human HOP62 cells; type: functional
# NCI-H460 = assay: Cytotoxicity against human NCI-H460 cells; type: functional
# K562 = assay: Cytotoxicity against human K562 cells; type: functional
# LOX IMVI = assay: Cytotoxicity against human LOXIMVI cells; type: functional
# NCI-H23 = assay: Cytotoxicity against human NCI-H23 cells; type: functional
# IGROV-1 = assay: Cytotoxicity against human IGROV1 cells; type: functional
# HL-60(TB) = assay: Cytotoxicity against human HL-60(TB) cells; type: functional
# DU-145 = assay: Cytotoxicity against human DU145 cells; type: functional
# KM12 = assay: Cytotoxicity against human KM12 cells; type: functional
# NCI-H522 = assay: Cytotoxicity against human NCI-H522 cells; type: functional
# SK-MEL-2 = assay: Cytotoxicity against human SK-MEL-2 cells; type: functional
# A549 = assay: Cytotoxicity against human A549 cells; type: functional
# A498 = assay: Cytotoxicity against human A498 cells; type: functional
# [9] = Cytotoxicity against human UACC257 cells; type: functional; settings: UACC-257
# MOLT-4 = assay: Cytotoxicity against human MOLT4 cells; type: functional
# HCC 2998 = assay: Cytotoxicity against human HCC2998 cells; type: functional
# BT-549 = assay: Cytotoxicity against human BT549 cells; type: functional
# HOP-92 = assay: Cytotoxicity against human HOP92 cells; type: functional
# SNB-75 = assay: Cytotoxicity against human SNB75 cells; type: functional
# MDA-MB-231 = assay: Cytotoxicity against human MDA-MB-231 cells; type: functional
# [10] = Cytotoxicity against human OVCAR5 cells; type: functional; settings: OVCAR-5
# SNB-19 = assay: Cytotoxicity against human SNB19 cells; type: functional
# [11] = Cytotoxicity against human OVCAR4 cells; type: functional; settings: OVCAR-4
# [12] = Cytotoxicity against human UO31 cells; type: functional; settings: UO-31
# [13] = Cytotoxicity against human HCT15 cells; type: functional; settings: HCT-15
# SN12C = assay: Cytotoxicity against human SN12C cells; type: functional
# [14] = Cytotoxicity against human SKOV3 cells; type: functional; settings: SK-OV-3
# [15] = Cytotoxicity against human PC3 cells; type: functional; settings: PC-3
# NCI-H226 = assay: Cytotoxicity against human NCI-H226 cells; type: functional
# SF-268 = assay: Cytotoxicity against human SF268 cells; type: functional
# SR = assay: Cytotoxicity against human SR cells; type: functional
# [16] = Cytotoxicity against human UACC62 cells; type: functional; settings: UACC-62
# SK-MEL-28 = assay: Cytotoxicity against human SK-MEL-28 cells; type: functional
# T47D = assay: Cytotoxicity against human T47D cells; type: functional
# NCI-H322M = assay: Cytotoxicity against human NCI-H322M cells; type: functional
# CCRF-CEM = assay: Cytotoxicity against human CCRF-CEM cells; type: functional
# U-251 = assay: Cytotoxicity against human U251 cells; type: functional
# [17] = Cytotoxicity against human Hs578T cells; type: functional; settings: Hs-578T
# M14 = assay: Cytotoxicity against human M14 cells; type: functional
# RPMI-8226 = assay: Cytotoxicity against human RPMI8226 cells; type: functional
# MCF7 = assay: Cytotoxicity against human MCF7 cells; type: functional
# ACHN = assay: Cytotoxicity against human ACHN cells; type: functional
# Malme-3M = assay: Cytotoxicity against human MALME-3M cells; type: functional
# 786-0 = assay: Cytotoxicity against human 786-0 cells; type: functional
# CAKI-1 = assay: Cytotoxicity against human Caki1 cells; type: functional
# COLO 205 = assay: Cytotoxicity against human COLO205 cells; type: functional
# [18] = Cytotoxicity against human HCT116 cells; type: functional; settings: HCT-116
smiles,measurement,setting,value
CC[C@]1(O)C[C@@H]2CN(CCc3c([nH]c4ccccc34)[C@@](C(=O)OC)(c3cc4c(cc3OC)N(C)[C@H]3[C@@](O)(C(=O)OC)[C@H](OC(C)=O)[C@]5(CC)C=CCN6CC[C@]43[C@@H]65)C2)C1 [VINBLASTINE],TGI,[1]; OVCAR-3,1.6 nM
same,GI50,"[1]; OVCAR-3, read-out: GI50",0.3 nM
same,CC50,"[1]; OVCAR-3, read-out: LC50 (the source's name)",500 nM
same,Activity,Paracentrotus lividus [2],Active
same,TGI,SF-539,2.5 nM
same,GI50,SF-539; read-out: GI50,0.6 nM
same,TGI,RXF 393,50 nM
same,GI50,RXF 393; read-out: GI50,1 nM
same,GI50,[3],1.37 nM
same,EC,Paracentrotus lividus [4],0.2 µM
same,TGI,[5]; OVCAR-8,320 nM
same,GI50,"[5]; OVCAR-8, read-out: GI50",1.6 nM
same,CC50,"[5]; OVCAR-8, read-out: LC50 (the source's name)",2000 nM
same,TGI,MDA-MB-435,0.25 nM
same,GI50,MDA-MB-435; read-out: GI50,0.25 nM
same,CC50,MDA-MB-435; read-out: LC50 (the source's name),1 nM
same,EC,Paracentrotus lividus [6],0.1 µM
same,TGI,[7],790 nM
same,GI50,[7]; read-out: GI50,100 nM
same,EC,Paracentrotus lividus [8],2 µM
Nc1nonc1-c1nc2ccccc2n1Cc1cccc(F)c1,EC,Paracentrotus lividus [4],>4 µM
same,IC50,Tubulin,7900 nM
same,EC,Paracentrotus lividus [6],0.5 µM
same,EC,Paracentrotus lividus [8],>4 µM
Nc1nonc1-c1nc2ccccc2n1Cc1ccc(F)cc1,GI50,[3],8910 nM
same,EC,Paracentrotus lividus [4],>4 µM
same,EC,Paracentrotus lividus [6],2 µM
same,EC,Paracentrotus lividus [8],>4 µM
COc1cc2c(c(OC)c1OC)-c1ccc(OC)c(=O)cc1[C@@H](NC(C)=O)CC2 [COLCHICINE],Activity,Paracentrotus lividus [2],Active
same,GI50,[3],132 nM
same,EC,Paracentrotus lividus [4],100 µM
same,EC,Paracentrotus lividus [6],50 µM
same,EC,Paracentrotus lividus [8],50 µM
COc1cccc(Cn2c(-c3nonc3N)nc3ccccc32)c1,GI50,SK-MEL-5,331 nM
same,GI50,SW-620,363 nM
same,GI50,"[1]; OVCAR-3, read-out: pGI50 (converted)",263 nM
same,Activity,Paracentrotus lividus [2],Active
same,GI50,HT-29,316 nM
same,GI50,MDA-MB-468,240 nM
same,GI50,SF-539; read-out: pGI50 (converted),214 nM
same,GI50,TK-10,724 nM
same,GI50,HOP-62,468 nM
same,GI50,NCI-H460,363 nM
same,GI50,K562,347 nM
same,GI50,LOX IMVI,537 nM
same,GI50,NCI-H23,832 nM
same,GI50,IGROV-1,603 nM
same,GI50,RXF 393; read-out: pGI50 (converted),275 nM
same,GI50,[3],457 nM
same,GI50,HL-60(TB),263 nM
same,GI50,DU-145,603 nM
same,GI50,KM12,501 nM
same,GI50,NCI-H522,229 nM
same,GI50,SK-MEL-2,288 nM
same,GI50,A549,617 nM
same,EC,Paracentrotus lividus [4],2 µM
same,GI50,A498,275 nM
same,GI50,[9],316 nM
same,GI50,MOLT-4,724 nM
same,GI50,HCC 2998,1170 nM
same,GI50,"[5]; OVCAR-8, read-out: pGI50 (converted)",525 nM
same,GI50,BT-549,363 nM
same,GI50,HOP-92,372 nM
same,GI50,SNB-75,295 nM
same,GI50,MDA-MB-231,955 nM
same,GI50,[10],550 nM
same,GI50,SNB-19,741 nM
same,GI50,[11],8710 nM
same,GI50,[12],589 nM
same,GI50,[13],380 nM
same,GI50,SN12C,646 nM
same,GI50,[14],437 nM
same,GI50,[15],447 nM
same,GI50,NCI-H226,525 nM
same,GI50,SF-268,759 nM
same,GI50,SR,263 nM
same,GI50,[16],513 nM
same,GI50,SK-MEL-28,813 nM
same,GI50,T47D,501 nM
same,GI50,MDA-MB-435; read-out: pGI50 (converted),182 nM
same,GI50,NCI-H322M,871 nM
same,EC,Paracentrotus lividus [6],0.2 µM
same,GI50,[7]; read-out: pGI50 (converted),316 nM
same,GI50,CCRF-CEM,339 nM
same,GI50,U-251,437 nM
same,GI50,[17],339 nM
same,EC,Paracentrotus lividus [8],>5 µM
same,GI50,M14,275 nM
same,GI50,RPMI-8226,363 nM
same,GI50,MCF7,398 nM
same,GI50,ACHN,550 nM
same,GI50,Malme-3M,525 nM
same,GI50,786-0,437 nM
same,GI50,CAKI-1,417 nM
same,GI50,COLO 205,372 nM
same,GI50,[18],389 nM
